Measurements taken from the NIST ThermoML archive (doi:10.1021/je300086w).

Columns and labels:
[1] = for viscosity / mass density: 101.33 kPa, Liquid; for mass density: Vibrating tube method; for Normal melting temperature: Crystal, AC calorimetry
[2] = refractive index (Na D-line) (dimensionless); conditions: 101.33 kPa, Liquid, Standard Abbe refractometry

CCCC(=O)[O-].C[N+](C)(C)CCO [choline butanoate]
Conditions	mass density, [1] [kg/m3]	refractive index, [2]	viscosity, [1] [mPa·s]
293.15 K	1049.5	1.4716	833.1
298.15 K	1046.5	1.47	630.6
303.15 K	1043.4	1.4683	459.3
308.15 K	1040.5	1.4667	344.2
313.15 K	1037.6	1.465	254
318.15 K	1034.6	1.4633	193.8
323.15 K	1031.9	1.4617	150.2
328.15 K	1029	1.46	118.2
333.15 K	1026.2	1.4585	94.3
338.15 K	1023.4	–	76.1
343.15 K	1020.5	–	62.2
348.15 K	1017.2	–	51.4
353.15 K	1014.5	–	42.9

CCCCCC(=O)[O-].C[N+](C)(C)CCO [2-hydroxy-N,N,N-trimethylethanaminium hexanoate]
Conditions	mass density, [1] [kg/m3]	refractive index, [2]	viscosity, [1] [mPa·s]
293.15 K	1018.8	1.4726	929.2
298.15 K	1015.7	1.4709	710.7
303.15 K	1012.5	1.4692	530.4
308.15 K	1009.8	1.4675	400.3
313.15 K	1006.8	1.4658	298
318.15 K	1003.9	1.464	225.9
323.15 K	1001.3	1.4624	175.3
328.15 K	998.4	1.4607	140.3
333.15 K	995.5	1.459	110.9
338.15 K	992.6	–	89.7
343.15 K	989.7	–	73.7
348.15 K	986.8	–	60.9
353.15 K	984	–	51

CC(=O)OCC[N+](C)(C)C [2-acetoxy-N,N,N-trimethylethanaminium]
Conditions	Normal melting temperature [°C]
[1]	72.0

CC(C)(C)C(=O)[O-].C[N+](C)(C)CCO [choline pivalate]
Conditions	Normal melting temperature [°C]
[1]	96.0

CCC(=O)[O-].C[N+](C)(C)CCO [cholinium propanoate]
Conditions	mass density, [1] [kg/m3]	refractive index, [2]	viscosity, [1] [mPa·s]
293.15 K	1074.6	1.4705	395.8
298.15 K	1071.5	1.4686	290.2
303.15 K	1068.6	1.4668	215.6
308.15 K	1065.7	1.465	163.2
313.15 K	1062.8	1.4631	125.8
318.15 K	1060	1.4611	98.5
323.15 K	1057.2	1.4592	78.3
328.15 K	1054.3	1.4573	63
333.15 K	1051.4	1.4555	51.4
338.15 K	1048.6	–	42.4
343.15 K	1045.8	–	35.4
348.15 K	1042.9	–	29.8
353.15 K	1040.1	–	25.4
